Data reported in the NIST ThermoML archive (doi:10.1021/je800110r).

Details: 333.15 K, Liquid, Vibrating tube method

CCCCCCCCCC [decane]
Details | mass density [kg/m3]
19251 kPa | 716.4
19274 kPa | 716.4
19314 kPa | 716.5
19349 kPa | 716.6
19381 kPa | 716.6
19417 kPa | 716.4
19450 kPa | 716.6
19479 kPa | 716.6
19511 kPa | 716.6
19540 kPa | 716.7
19568 kPa | 716.7
19592 kPa | 716.6
19616 kPa | 716.7
19651 kPa | 716.8
19679 kPa | 716.8
19711 kPa | 716.7
19731 kPa | 716.7
19756 kPa | 716.9
19796 kPa | 716.8
19819 kPa | 716.8
19856 kPa | 716.9
19885 kPa | 717
19910 kPa | 716.9
19934 kPa | 717
19963 kPa | 717
19996 kPa | 716.9
20029 kPa | 717.1
20054 kPa | 717.2
20083 kPa | 717
20116 kPa | 717
20150 kPa | 717.1
20188 kPa | 717.1
20228 kPa | 717.3
20254 kPa | 717.2
20284 kPa | 717.3
20318 kPa | 717.2
20356 kPa | 717.3
20390 kPa | 717.3
20425 kPa | 717.4
20464 kPa | 717.3
20494 kPa | 717.3
20525 kPa | 717.4
20552 kPa | 717.5
20579 kPa | 717.5
20606 kPa | 717.4
20628 kPa | 717.4
20654 kPa | 717.5
20695 kPa | 717.6
20730 kPa | 717.5
20769 kPa | 717.6
20801 kPa | 717.6
20841 kPa | 717.6
20873 kPa | 717.7
20900 kPa | 717.7
20931 kPa | 717.7
20959 kPa | 717.8
20996 kPa | 717.7
21022 kPa | 717.8
21055 kPa | 717.8
21176 kPa | 717.9
21204 kPa | 717.9
21251 kPa | 717.9
21280 kPa | 718
21313 kPa | 718.1
21352 kPa | 718.1
21376 kPa | 718.1
21409 kPa | 718.2
21433 kPa | 718.1
21462 kPa | 718.2
21500 kPa | 718.2
21529 kPa | 718.2
21573 kPa | 718.3
21612 kPa | 718.4
21655 kPa | 718.3
21690 kPa | 718.4
21725 kPa | 718.4
21755 kPa | 718.4
21861 kPa | 718.6
21901 kPa | 718.5
21931 kPa | 718.6
21967 kPa | 718.6
22007 kPa | 718.5
22038 kPa | 718.6
22074 kPa | 718.7
22115 kPa | 718.7
22162 kPa | 718.7
22193 kPa | 718.8
22224 kPa | 718.8
22261 kPa | 718.8
22293 kPa | 718.8
22345 kPa | 718.9
22381 kPa | 718.9
22419 kPa | 719
22471 kPa | 719
22498 kPa | 718.9
22530 kPa | 719
22561 kPa | 719
22611 kPa | 719
22649 kPa | 719.1
22677 kPa | 719.1
22726 kPa | 719.1
22771 kPa | 719.2
22816 kPa | 719.2
22849 kPa | 719.4
22899 kPa | 719.3
22927 kPa | 719.4
22959 kPa | 719.3
23000 kPa | 719.3
23038 kPa | 719.5
23068 kPa | 719.3
23096 kPa | 719.5
23134 kPa | 719.6
23172 kPa | 719.5
23219 kPa | 719.5
23252 kPa | 719.6
23281 kPa | 719.5
23314 kPa | 719.6
23339 kPa | 719.7
23382 kPa | 719.7
23416 kPa | 719.8
23452 kPa | 719.7
23491 kPa | 719.8
23539 kPa | 719.9
23579 kPa | 719.7
23623 kPa | 719.9
23657 kPa | 719.9
23697 kPa | 719.9
23726 kPa | 719.9
23766 kPa | 720
23797 kPa | 720
23831 kPa | 719.9
23868 kPa | 720.1
23898 kPa | 720.1
23943 kPa | 720.1
23979 kPa | 720
24014 kPa | 720.1
24049 kPa | 720.1
24085 kPa | 720.1
24131 kPa | 720.3
24177 kPa | 720.3
24224 kPa | 720.2
24260 kPa | 720.2
24308 kPa | 720.3
24355 kPa | 720.4
24402 kPa | 720.5
24433 kPa | 720.5
24481 kPa | 720.5
24513 kPa | 720.5
24550 kPa | 720.5
24586 kPa | 720.6
24618 kPa | 720.6
24656 kPa | 720.6
24700 kPa | 720.6
24738 kPa | 720.7
24783 kPa | 720.8
24815 kPa | 720.9
24859 kPa | 720.8
24897 kPa | 720.9
24935 kPa | 720.9
24974 kPa | 720.7
25013 kPa | 721
25058 kPa | 720.9
25114 kPa | 721.1
25142 kPa | 721
25177 kPa | 721
25213 kPa | 721.1
25259 kPa | 721.1
25303 kPa | 721.2
26374 kPa | 721.9
26417 kPa | 722
26462 kPa | 722.1
26501 kPa | 722
27273 kPa | 722.7
27328 kPa | 722.6
27371 kPa | 722.6
27419 kPa | 722.6
29838 kPa | 724.5
29868 kPa | 724.5
29913 kPa | 724.5
29948 kPa | 724.6
29988 kPa | 724.7
30720 kPa | 725.2
30760 kPa | 725.2
30787 kPa | 725.3
30831 kPa | 725.2
30857 kPa | 725.2
30898 kPa | 725.3
30924 kPa | 725.4
30960 kPa | 725.2
31000 kPa | 725.3
31027 kPa | 725.4
31059 kPa | 725.4
31090 kPa | 725.4
31122 kPa | 725.4
31148 kPa | 725.4
31190 kPa | 725.5
31218 kPa | 725.5
31259 kPa | 725.6
31295 kPa | 725.5
31332 kPa | 725.6
31592 kPa | 725.8
31630 kPa | 725.8
31667 kPa | 725.7
31731 kPa | 725.9
31793 kPa | 725.9
31821 kPa | 725.9
31859 kPa | 726
31893 kPa | 725.9
31921 kPa | 726.1
31956 kPa | 726
31994 kPa | 726
32038 kPa | 726.1
32086 kPa | 726.1
32125 kPa | 726
32150 kPa | 726.2
32479 kPa | 726.4
32505 kPa | 726.4
32549 kPa | 726.4
32589 kPa | 726.4
32625 kPa | 726.4
32670 kPa | 726.7
32696 kPa | 726.6
32737 kPa | 726.6
32780 kPa | 726.6
32812 kPa | 726.5
32850 kPa | 726.6
32883 kPa | 726.6
32910 kPa | 726.7
32948 kPa | 726.7
32985 kPa | 726.7
33027 kPa | 726.8
33070 kPa | 726.8
33098 kPa | 726.9
33136 kPa | 726.8
33179 kPa | 726.8
33213 kPa | 727
33251 kPa | 726.8
33289 kPa | 726.9
33328 kPa | 726.9
33366 kPa | 727
33404 kPa | 727.1
33434 kPa | 727
33473 kPa | 727
33508 kPa | 727
33553 kPa | 727.1
33593 kPa | 727.3
33633 kPa | 727.1
33660 kPa | 727.2
33693 kPa | 727.3
33721 kPa | 727.3
33748 kPa | 727.3
33772 kPa | 727.2
33796 kPa | 727.3
33816 kPa | 727.4
33851 kPa | 727.3
33876 kPa | 727.5
33907 kPa | 727.3
33943 kPa | 727.5
33976 kPa | 727.5
34008 kPa | 727.4
34037 kPa | 727.5
34062 kPa | 727.6
34091 kPa | 727.5
34116 kPa | 727.6
34150 kPa | 727.6
34176 kPa | 727.6
34219 kPa | 727.7
34246 kPa | 727.7
34288 kPa | 727.7
34326 kPa | 727.7
34351 kPa | 727.7
34386 kPa | 727.8
34412 kPa | 727.8
34437 kPa | 727.7
